Reference: PMC9841576, “Characterisation of C101248: A novel selective THIK-1 channel inhibitor for the modulation of microglial NLRP3-inflammasome” (Neuropharmacology, 2023)

Key:
[1] = target: T1, Kv2.1 (Homo sapiens, UniProt Q14721); test: FLIPR thallium influx assay, potassium sulphate stimulated CHO-Kv2.1 cells; assay type: cell-based; conditions: potassium sulphate stimulated CHO-Kv2.1, at 30 μM; read-out: inhibition of thallium flux
T1 construct: host or cells: CHO
Procedure: (§1) HEK-293 cells were transfected with human THIK-1, TREK-1, TWIK-2, or mouse THIK-1 cDNA cloned into pcDNA3.1, using either Fugene HD transfection reagent (Promega) or electroporation (MaxCyte STX instrument). Cells stably expressing the relevant genes were selected based on resistance to 500 μg/ml geneticin (Gibco). For human THIK-1 and TWIK-2 expressing cells, monoclonal lines were isolated by limited dilution cloning; mouse THIK-1 and human TREK-1 expressing cells were maintained as polyclonal pools. The HEK-293 pools and monoclones stably expressing the relevant genes were maintained in DMEM (Life Technologies), supplemented with 10% FCIII (HyClone, Fetal clone III) and 500 μg/ml geneticin. A CHO-Kv2.1 cell line was purchased from Millipore (accession NM_004975) and maintained in F12 (Life Technologies), supplemented with 10% FCSIII (Thermo Scientific) and 500 μg/ml geneticin (Life Technologies). […]
A fluorescence-based thallium influx assay (Molecular Devices potassium assay kit) was used to monitor channel activity. […] Using a fluorescent imaging plate reader (FLIPR) tetra plate reader, 15 μl thallium stimulus solution was added to the cell plate and the fluorescence signal recorded every second for 1 min (excitation: 470–495 nm, emission: 515–575 nm).

[2] = target: T2, THIK-1 (Homo sapiens, UniProt Q9HB14); test: Q-Patch automated electrophysiology, HEK-hTHIK-1 cells; assay type: cell-based
T2 construct: expressed in transfected cells
T2 sequence (Q9HB14 1-408): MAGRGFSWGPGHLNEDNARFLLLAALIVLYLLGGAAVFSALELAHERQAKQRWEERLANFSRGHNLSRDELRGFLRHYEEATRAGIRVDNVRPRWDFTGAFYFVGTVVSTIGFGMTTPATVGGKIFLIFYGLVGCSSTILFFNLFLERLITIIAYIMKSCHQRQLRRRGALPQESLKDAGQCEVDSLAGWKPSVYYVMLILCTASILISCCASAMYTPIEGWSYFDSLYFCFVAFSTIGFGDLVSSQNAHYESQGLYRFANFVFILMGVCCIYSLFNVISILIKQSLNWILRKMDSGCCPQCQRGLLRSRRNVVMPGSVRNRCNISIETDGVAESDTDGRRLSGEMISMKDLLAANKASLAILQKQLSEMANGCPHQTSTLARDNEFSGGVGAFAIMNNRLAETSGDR
Procedure: as §1, with “Technologies). For thallium flux assays, banks of frozen cell aliquots were prepared the day prior to assay, cells were thawed into media and seeded into PDL coated 384-well plates (Corning) at 25,000 (human/mouse THIK-1, TREK-1) or 30,000 (TWIK-2) cells/well (25 μl/well). CHO-Kv2.1 cells were seeded into non-PDL coated plates (Corning) at 5000 cells/well.” for “Technologies).”
THIK-1 mediated currents were measured using the Q-Patch 48 automated electrophysiology platform (Sophion, Denmark). […]

T1 sequence (Q14721 whole entry): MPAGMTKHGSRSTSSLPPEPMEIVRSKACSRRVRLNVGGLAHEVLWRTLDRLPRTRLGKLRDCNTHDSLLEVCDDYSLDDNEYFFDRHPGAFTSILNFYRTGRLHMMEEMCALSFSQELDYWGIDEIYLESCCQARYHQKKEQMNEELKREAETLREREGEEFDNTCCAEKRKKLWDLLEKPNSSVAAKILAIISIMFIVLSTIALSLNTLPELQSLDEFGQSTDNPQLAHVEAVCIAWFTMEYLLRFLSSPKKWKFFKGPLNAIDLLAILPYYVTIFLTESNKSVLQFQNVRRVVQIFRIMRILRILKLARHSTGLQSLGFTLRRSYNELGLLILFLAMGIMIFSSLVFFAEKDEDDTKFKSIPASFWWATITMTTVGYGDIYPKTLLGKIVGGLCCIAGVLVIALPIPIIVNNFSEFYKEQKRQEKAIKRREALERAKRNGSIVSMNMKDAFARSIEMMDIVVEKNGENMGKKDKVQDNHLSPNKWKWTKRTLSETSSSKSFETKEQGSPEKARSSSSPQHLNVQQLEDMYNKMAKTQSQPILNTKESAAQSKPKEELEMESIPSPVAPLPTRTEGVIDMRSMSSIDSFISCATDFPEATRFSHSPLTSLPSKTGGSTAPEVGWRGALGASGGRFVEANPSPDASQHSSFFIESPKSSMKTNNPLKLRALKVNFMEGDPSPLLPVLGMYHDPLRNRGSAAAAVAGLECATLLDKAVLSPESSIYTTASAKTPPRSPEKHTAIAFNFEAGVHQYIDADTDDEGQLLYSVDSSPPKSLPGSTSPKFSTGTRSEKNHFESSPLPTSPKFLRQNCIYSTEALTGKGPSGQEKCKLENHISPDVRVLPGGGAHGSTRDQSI

inhibition at 30 µM [1]: -3%
maximum inhibition (Q-Patch) ([2]; HEK-hTHIK-1): 94%
IC50 ([2]; HEK-hTHIK-1, step to +40 mV, normalised to TPA, read-out: IC50, inhibition of basal currents (Q-Patch)): 147 nM
SMILES: Nc1nonc1-c1nc2ccccc2n1Cc1ccncc1 [C101248]
